Data taken from article PMC3646888 (PLoS ONE, 2013).
“Also recorded” adds a separate entry of the source.

Tests used:
Assay type in all cases: in vitro ADME
CYP2C6 = molecular target: T1, CYP2C6 (Rattus norvegicus, UniProt P05178); assay: Fluorescence-based CYP assay, recombinant CYP2C6, substrate EFC
T1 sequence (P05178 1-490): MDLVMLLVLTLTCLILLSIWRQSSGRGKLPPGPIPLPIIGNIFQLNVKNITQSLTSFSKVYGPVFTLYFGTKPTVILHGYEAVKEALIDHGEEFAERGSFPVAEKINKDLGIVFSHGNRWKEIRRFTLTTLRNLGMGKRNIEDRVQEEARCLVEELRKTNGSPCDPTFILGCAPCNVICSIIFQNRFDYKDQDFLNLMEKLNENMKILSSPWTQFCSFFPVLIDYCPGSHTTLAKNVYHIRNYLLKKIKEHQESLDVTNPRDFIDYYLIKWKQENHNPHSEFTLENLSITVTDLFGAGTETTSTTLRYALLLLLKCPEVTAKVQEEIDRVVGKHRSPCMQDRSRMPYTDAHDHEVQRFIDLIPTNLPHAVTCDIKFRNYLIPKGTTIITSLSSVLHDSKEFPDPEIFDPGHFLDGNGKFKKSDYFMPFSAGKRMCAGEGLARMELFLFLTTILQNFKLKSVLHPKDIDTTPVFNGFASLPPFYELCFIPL
Protocol: (§1) These assays were performed by methods similar to those described by VanAlstine and Hough, Stresser et al., Wulff et al., Henderson et al., and Crespi et al., with minor modifications. All incubations were performed in a final volume of 200 µL of 50 mM potassium phosphate buffer at pH 7.4 containing 1% acetonitrile. CYP inhibitor studies were performed according to the parameters of Table 1. Substrate concentrations were chosen to be near known Km values. As described in the references cited, two different NADPH regenerating systems were used depending on the substrates used (Table 1). Inhibitors were added to either “low” NADPH-regenerating system (final concentration of 8.1 µM NADP^+, 0.4 mM glucose-6-phosphate, 0.4 mM magnesium chloride, 0.2 U/mL glucose-6-phosphate dehydrogenase) or to “high” NADPH-regenerating system (final concentration of 1.3 mM NADP^+, 3.3 mM glucose-6-phosphate, 3.3 mM magnesium chloride, 0.4 U/mL glucose-6-phosphate dehydrogenase) in a total of 0.1 mL buffer. […] For assays utilizing “low” regenerating systems, product formation was monitored continuously by a Victor3 1420 Multilabel Plate Counter at the designated wavelengths (Table 1). […] Product formation was then measured at the designated wavelengths (Table 1). […]

CYP1A2r = molecular target: T2, CYP1A2r (Rattus norvegicus, UniProt P04799); assay: Fluorescence-based CYP assay, recombinant CYP1A2r, substrate EFC
T2 sequence (P04799 1-513): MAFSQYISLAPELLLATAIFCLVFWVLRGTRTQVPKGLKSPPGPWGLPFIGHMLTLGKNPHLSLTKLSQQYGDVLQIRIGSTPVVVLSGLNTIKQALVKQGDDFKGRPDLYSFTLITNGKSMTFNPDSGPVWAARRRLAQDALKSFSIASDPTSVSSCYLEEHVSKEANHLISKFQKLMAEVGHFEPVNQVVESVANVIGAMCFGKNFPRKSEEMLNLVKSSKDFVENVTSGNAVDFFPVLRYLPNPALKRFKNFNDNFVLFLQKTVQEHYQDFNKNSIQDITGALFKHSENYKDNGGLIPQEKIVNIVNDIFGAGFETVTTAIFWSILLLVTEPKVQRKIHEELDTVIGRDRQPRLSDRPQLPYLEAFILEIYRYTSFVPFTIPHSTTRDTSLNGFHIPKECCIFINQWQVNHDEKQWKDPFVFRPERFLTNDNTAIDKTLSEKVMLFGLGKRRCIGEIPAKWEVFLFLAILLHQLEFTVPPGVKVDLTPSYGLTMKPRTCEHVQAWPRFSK
Protocol: These assays were performed by methods similar to those described by VanAlstine and Hough, Stresser et al., Wulff et al., Henderson et al., and Crespi et al., with minor modifications. All incubations were performed in a final volume of 200 µL of 50 mM potassium phosphate buffer at pH 7.4 containing 1% acetonitrile. CYP inhibitor studies were performed according to the parameters of Table 1. Substrate concentrations were chosen to be near known Km values. As described in the references cited, two different NADPH regenerating systems were used depending on the substrates used (Table 1). […] Samples were pre-incubated at 37°C for the designated times, and the reactions were initiated with the addition of a substrate and enzyme mixtures (Table 1). […] For the assays utilizing the “high” regenerating system, enzyme reactions were terminated at the designated time by the addition of 75 µL of 2N NaOH, followed by a 2 h post-incubation at 37°C. Product formation was then measured at the designated wavelengths (Table 1). For the “low” regenerating system assays, blanks and standards were prepared in 0.1 mL buffer without the regenerating system. For the “high” regenerating system assays, blanks and standards containing 0.1 mL of buffer received 75 µL of 2N NaOH following pre-incubation.

CYP2C19 = CYP2C19 (Homo sapiens, UniProt P33261); assay: Fluorescence-based CYP assay, recombinant CYP2C19, substrate DBF
Sequence of CYP2C19 (P33261 whole entry): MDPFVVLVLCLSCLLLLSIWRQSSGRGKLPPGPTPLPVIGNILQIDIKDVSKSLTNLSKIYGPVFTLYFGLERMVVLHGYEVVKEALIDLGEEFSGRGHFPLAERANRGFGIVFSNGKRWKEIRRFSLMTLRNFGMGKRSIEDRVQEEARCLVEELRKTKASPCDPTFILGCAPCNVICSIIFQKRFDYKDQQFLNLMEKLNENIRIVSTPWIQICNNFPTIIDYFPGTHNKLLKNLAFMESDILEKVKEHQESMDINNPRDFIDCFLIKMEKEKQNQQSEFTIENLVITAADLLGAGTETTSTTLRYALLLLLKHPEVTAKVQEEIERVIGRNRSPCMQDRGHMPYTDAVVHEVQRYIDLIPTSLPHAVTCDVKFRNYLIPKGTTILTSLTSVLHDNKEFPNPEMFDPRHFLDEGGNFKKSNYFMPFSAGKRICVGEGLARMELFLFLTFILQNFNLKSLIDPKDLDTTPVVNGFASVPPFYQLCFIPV
Protocol: as §1

CYP2B6 = molecular target: T3, CYP2B6 (Homo sapiens, UniProt P20813); assay: Fluorescence-based CYP assay, recombinant CYP2B6, substrate EFC
T3 sequence (P20813 1-491): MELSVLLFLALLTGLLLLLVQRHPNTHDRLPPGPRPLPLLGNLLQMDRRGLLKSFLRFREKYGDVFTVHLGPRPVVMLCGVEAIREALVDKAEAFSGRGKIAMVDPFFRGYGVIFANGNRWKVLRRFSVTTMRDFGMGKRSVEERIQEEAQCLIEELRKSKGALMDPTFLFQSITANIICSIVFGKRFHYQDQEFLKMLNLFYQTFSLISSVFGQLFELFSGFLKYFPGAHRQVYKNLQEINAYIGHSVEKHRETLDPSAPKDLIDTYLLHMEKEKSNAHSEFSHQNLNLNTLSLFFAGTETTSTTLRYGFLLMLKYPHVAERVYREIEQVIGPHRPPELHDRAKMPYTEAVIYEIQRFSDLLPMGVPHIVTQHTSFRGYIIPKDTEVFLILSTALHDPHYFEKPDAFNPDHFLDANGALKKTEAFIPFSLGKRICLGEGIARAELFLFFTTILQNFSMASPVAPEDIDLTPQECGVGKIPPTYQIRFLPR
Protocol: as §1

| SMILES | Inhibition of CYP2C6 (in words) (CYP2C6; positive control) | Inhibition of CYP1A2r (in words) (CYP1A2r; clotrimazole concentration-response, Fig. 1C) | Inhibition of CYP2C19 (in words) (CYP2C19; recombinant enzyme) | Inhibition of CYP2B6 (in words) (CYP2B6; positive control) | IC50 (CYP2C6; recombinant rat CYP2C6, EFC 5 µM) | IC50 (CYP1A2r) | Inhibition of CYP1A2r (in words) (CYP1A2r; concentrations up to 80 µM) | IC50 (CYP2C19) | IC50 (CYP2B6) |
| --- | --- | --- | --- | --- | --- | --- | --- | --- | --- |
| Clc1ccccc1C(c1ccccc1)(c1ccccc1)n1ccnc1 [Clotrimazole] | potent inhibitor | only partly inhibited | potent inhibitor | potent inhibitor | – | – | – | – | – |
| Clc1ccccc1C(c1ccccc1)(c1ccccc1)n1cccn1 [TRAM-34, 1-[(2-chlorophenyl)diphenylmethyl]-1H-pyrazole] | – | – | – | – | 2900 nM | > 80 µM | no inhibition; also recorded: no inhibitory effects | 1800 nM | 900 nM |
